According to PMC11108815 (Heliyon, 2024):
Marks after values point to notes of the source that are not given here. One block for each compound: values may come before it.

Experiments:
[1] = Pharmacokinetics in rat plasma; type: in vivo, Wistar rats; settings: for AUC(0-inf): AUC0-∞; for CL/F: CLz/F; for MRT last: MRT0-t; for MRT inf: MRT0-∞
[2] = Stability test of QC samples; type: physicochemical, rat
[3] = rats, oral, 12.5 to 50 mg kg^−1; cited from earlier work
[4] = Wistar, rat, plasma, po, 100 mg/kg, FS-C: normal (blank) rats, oral FS 100 mg kg^−1, n = 6
[5] = Wistar, rat, plasma, po, 100 mg/kg, FT-C: normal (blank) rats, oral FT 100 mg kg^−1, n = 6
[6] = Store at 4 °C for 24 h, high concentration QC sample in rat plasma
[7] = Store at 4 °C for 24 h, low concentration QC sample in rat plasma
[8] = Store at 4 °C for 24 h, medium concentration QC sample in rat plasma
[9] = Store at room temperature for 12 h, high concentration QC sample in rat plasma
[10] = Store at room temperature for 12 h, low concentration QC sample in rat plasma
[11] = Store at room temperature for 12 h, medium concentration QC sample in rat plasma
[12] = Store at −20 °C for 20 days, high concentration QC sample in rat plasma
[13] = Store at −20 °C for 20 days, low concentration QC sample in rat plasma
[14] = Store at −20 °C for 20 days, medium concentration QC sample in rat plasma
[15] = Three freeze-thaw cycles, high concentration QC sample in rat plasma
[16] = Three freeze-thaw cycles, low concentration QC sample in rat plasma
[17] = Three freeze-thaw cycles, medium concentration QC sample in rat plasma
[18] = FS-C: normal (blank) rats, oral FS 100 mg kg^−1, n = 6
[19] = FS-M: microcirculation dysfunction model rats, oral FS 100 mg kg^−1, n = 6
[20] = FT-C: normal (blank) rats, oral FT 100 mg kg^−1, n = 6
[21] = FT-M: microcirculation dysfunction model rats, oral FT 100 mg kg^−1, n = 6

- AUC(0-t) ([1]; Wistar, rat, plasma, po, 100 mg/kg, AUC0-t, FS-C: normal (blank) rats, oral FS 100 mg kg^−1, n = 6): 218 ± 14.9 µg·h/L
- AUC(0-t) ([1]; Wistar, rat, plasma, po, 100 mg/kg, AUC0-t, FT-C: normal (blank) rats, oral FT 100 mg kg^−1, n = 6): 104 ± 17.2 µg·h/L
- AUC(0-inf) [1, 4]: 222 ± 20.6 ng·h/mL
- AUC(0-inf) [1, 5]: 109 ± 28.6 ng·h/mL
- CL/F [1, 4]: 2060 mL/min/kg
- CL/F [1, 5]: 3430 mL/min/kg
- Cmax ([1]; Wistar, rat, plasma, po, 100 mg/kg, Cmax, FS-C: normal (blank) rats, oral FS 100 mg kg^−1, n = 6): 54.5 ± 5.34 µg/L
- Cmax ([1]; Wistar, rat, plasma, po, 100 mg/kg, Cmax, FT-C: normal (blank) rats, oral FT 100 mg kg^−1, n = 6): 16.4 ± 4.28 µg/L
- MRT last [1, 4]: 5.01 ± 0.38 h
- MRT last [1, 5]: 7.95 ± 1.33 h
- MRT inf [1, 4]: 5.48 ± 1.41 h
- MRT inf [1, 5]: 8.82 ± 3.43 h
- half-life ([1]; Wistar, rat, plasma, po, 100 mg/kg, T1/2, FS-C: normal (blank) rats, oral FS 100 mg kg^−1, n = 6): 145 ± 150 min
- half-life ([1]; Wistar, rat, plasma, po, 100 mg/kg, T1/2, FT-C: normal (blank) rats, oral FT 100 mg kg^−1, n = 6): 175 ± 223 min
- Tmax ([1]; Wistar, rat, plasma, po, 100 mg/kg, Tmax, FS-C: normal (blank) rats, oral FS 100 mg kg^−1, n = 6): 23.4 ± 5.4 min
- Tmax ([1]; Wistar, rat, plasma, po, 100 mg/kg, Tmax, FT-C: normal (blank) rats, oral FT 100 mg kg^−1, n = 6): 13.2 ± 5.4 min
- Tmax ([1]; Wistar, rat, plasma, po, 100 mg/kg, Tmax, control group, after oral administration of FS or FT): < 23.4 min
- MRT0-t after oral FT compared with the FS group ([1]; both before and after modeling): increased
- CLz/F in FT compared with FS ([1]; normal group, p < 0.01): higher
- AUC0-t in FT compared with FS ([1]; normal group, p < 0.01, 0.05): significantly lower
- AUC0-∞ in FT compared with FS ([1]; normal group, p < 0.01, 0.05): significantly lower
- Cmax in FT compared with FS ([1]; normal group, p < 0.01, 0.05): significantly lower
- Cmax after modeling compared with control group ([1]; oral administration of FS): increased
- Stability, Accuracy (RE, %) [2, 6]: 5.57%
- Stability, Accuracy (RE, %) [2, 7]: −6.18%
- Stability, Accuracy (RE, %) [2, 8]: 0.63%
- Stability, Accuracy (RE, %) [2, 9]: −10.92%
- Stability, Accuracy (RE, %) [2, 10]: −3.95%
- Stability, Accuracy (RE, %) [2, 11]: −0.80%
- Stability, Accuracy (RE, %) [2, 12]: 0.99%
- Stability, Accuracy (RE, %) [2, 13]: 1.19%
- Stability, Accuracy (RE, %) [2, 14]: 6.02%
- Stability, Accuracy (RE, %) [2, 15]: −4.84%
- Stability, Accuracy (RE, %) [2, 16]: 1.82%
- Stability, Accuracy (RE, %) [2, 17]: −0.56%
SMILES: O=C(/C=C/c1ccc(O)c(O)c1)O[C@H](Cc1ccc(O)c(O)c1)C(=O)O [Rosmarinic acid]
- pharmacokinetic characteristics [3]: fast absorption, moderate elimination and low absolute bioavailability

- AUC0-∞ [1, 18]: 641.77 ± 218.27 µg·h/L
- AUC(0-t) [1, 18]: 542.82 ± 141.09 µg·h/L
- CLz/F [1, 18]: 0.02 ± 0.01 L/h/kg
- Cmax [1, 18]: 88.45 ± 17.93 µg/L
- MRT0-t [1, 18]: 6.53 ± 2.11 h
- MRT0-∞ [1, 18]: 11.93 ± 15.11 h
- T1/2 [1, 18]: 5.74 ± 11.19 h
- Tmax [1, 18]: 40.2 ± 22.2 min
- AUC0-∞ [1, 19]: 947.33 ± 140.96 ^c μg·h·L^−1
- AUC(0-t) [1, 19]: 880.02 ± 141.73 ^d μg·h·L^−1
- CLz/F [1, 19]: 0.01 ± 0.00 ^c L·h^−1·kg^−1
- Cmax [1, 19]: 105.53 ± 11.68 µg/L
- MRT0-t [1, 19]: 7.53 ± 0.85 h
- MRT0-∞ [1, 19]: 9.53 ± 3.95 h
- T1/2 [1, 19]: 4.47 ± 3.92 h
- Tmax [1, 19]: 44.4 ± 96 min
- AUC0-∞ [1, 20]: 588.72 ± 114.83 µg·h/L
- AUC(0-t) [1, 20]: 584.67 ± 122.39 µg·h/L
- CLz/F [1, 20]: 0.02 ± 0.00 L/h/kg
- Cmax [1, 20]: 99.66 ± 15.57 µg/L
- MRT0-t [1, 20]: 7.54 ± 0.95 h
- MRT0-∞ [1, 20]: 7.81 ± 0.63 h
- T1/2 [1, 20]: 2.18 ± 2.22 h
- Tmax [1, 20]: 28.2 ± 4.2 min
- AUC0-∞ [1, 21]: 767.88 ± 279.35 µg·h/L
- AUC(0-t) [1, 21]: 658.64 ± 172.02 µg·h/L
- CLz/F [1, 21]: 0.02 ± 0.01 L/h/kg
- Cmax [1, 21]: 165.48 ± 7.83^f μg·L^−1
- MRT0-t [1, 21]: 5.33 ± 0.98 ^a^, ^e h
- MRT0-∞ [1, 21]: 10.76 ± 12.84 h
- T1/2 [1, 21]: 6.40 ± 11.48 h
- Tmax [1, 21]: 1.00 ± 0.00 ^f h
- AUC0-t in model group compared with control group ([1]; after modeling, p < 0.01, 0.05): significantly higher
- AUC0-∞ in model group compared with control group ([1]; after modeling, p < 0.01, 0.05): significantly higher
- MRT0-t in the model group treated with FT ([1]; compared with the control group treated with FT and the model group treated with FS): decreased
- shape of the drug-time curve ([1]; control group with oral FS): bimodal phenomenon
- CLz/F after modeling compared with control group ([1]; oral administration of FS): decrease
- Cmax after modeling compared with control group ([1]; oral administration of FT): significant increase
- Stability, Accuracy (RE, %) [2, 6]: 6.29%
- Stability, Accuracy (RE, %) [2, 7]: −5.50%
- Stability, Accuracy (RE, %) [2, 8]: 5.99%
- Stability, Accuracy (RE, %) [2, 9]: 9.76%
- Stability, Accuracy (RE, %) [2, 10]: −2.61%
- Stability, Accuracy (RE, %) [2, 11]: 1.50%
- Stability, Accuracy (RE, %) [2, 12]: −8.83%
- Stability, Accuracy (RE, %) [2, 13]: 6.50%
- Stability, Accuracy (RE, %) [2, 14]: 0.73%
- Stability, Accuracy (RE, %) [2, 15]: −3.63%
- Stability, Accuracy (RE, %) [2, 16]: 2.54%
- Stability, Accuracy (RE, %) [2, 17]: −10.44%
SMILES: O=C(O)[C@H](O)Cc1ccc(O)c(O)c1 [Danshensu]
